The test system of assay [1] is HIV-1IIIB. The experiment in a line: HIV-1 antiviral assay in CEM-SS cells (MTS readout). It counts as cell-based.
The subject of assay [2] is hepatitis B virus (HBV) ayw strain. The experiment in a line: HBV assay in HepG2-2.2.15 cells (TaqMan PCR of secreted HBV DNA). Conditions: 10 micrograms per ml, six days. It counts as cell-based. The text has this: HepG2-2.2.15 is a stable cell line containing the hepatitis B virus (HBV) ayw strain genome (ATCC Cat. No. CRL-11997). Antiviral compounds blocking any late step of viral replication such as transcription, translation, pregenome encapsidation, reverse transcription, particle assembly and release can be identified and characterized using this cell line. In this assay, an active compound will reduce the production of secreted HBV from cells, measured by utilizing real time quantitative PCR (TaqMan) assay to directly and accurately measure HBV DNA copies.
HepG2-2.2.15 cells were plated in 96-well microtiter plates. After 16-24 hours the confluent monolayer of HepG2-2.2.15 cells was washed and the medium was replaced with complete medium containing test peptides-10 micrograms per ml-in duplicate. […] Six days following the initial administration of the peptides, the cell culture supernatants was collected, treated with pronase and DNAse and then used in a real-time quantitative TaqMan PCR assay. The PCR-amplified HBV DNA was detected in real-time by monitoring increases in fluorescence signals that result from the exonucleolytic degradation of a quenched fluorescence probe molecule that hybridizes to the mplified HBV DNA. […] Antiviral activity was calculated from the reduction in HBV DNA levels (% virus control). […]

Assay [3] deals with Interleukin-2 (IL-2). The experiment in a line: Th1/Th2 cytokine profiling assay: IL-2. It counts as cell-based, Balb/c mice. The note with it: 10 micrograms per ml; Ovalbumin-restimulated spleen cells, 72 hours.
Method: (§1) On day 50, spleens of the mice were harvested (3 weeks after last boost with Ovalbumin). Cells were cultured (2×10^5/well in triplicate) and incubated with culture medium or test peptides-10 micrograms per ml-for 30 min. Thereafter, additional Ovalbumin was added to the cells at 10 micrograms/ml for in vitro restimulation of the cells. 72 hours later, cell supernatants were harvested and assayed using the Becton Dickinson Mouse Th1/Th2 Cytokine CBA Kit.
Assay [4] concerns Interleukin-4 (IL-4). The experiment in a line: Th1/Th2 cytokine profiling assay: IL-4. It counts as cell-based, Balb/c mice. The note with it: 10 micrograms per ml; Ovalbumin-restimulated spleen cells, 72 hours.
Method: as §1
The subject of assay [5] is Interleukin-5 (IL-5). The assay can be described thus: Th1/Th2 cytokine profiling assay: IL-5. Conditions: 10 micrograms per ml; Ovalbumin-restimulated spleen cells, 72 hours. The format is cell-based, Balb/c mice.
Method: as §1
The test system of assay [6] is Interferon-γ (IFN-γ). The experiment in a line: Th1/Th2 cytokine profiling assay: IFN-gamma. Conditions: 10 micrograms per ml; Ovalbumin-restimulated spleen cells, 72 hours. The format is cell-based, Balb/c mice.
Method: as §1
Assay [7] concerns Tumor Necrosis Factor-α (TNF-α). The assay can be described thus: Th1/Th2 cytokine profiling assay: TNF-alpha. It counts as cell-based, Balb/c mice. The note with it: 10 micrograms per ml; Ovalbumin-restimulated spleen cells, 72 hours.
Method: as §1
For assay [8], the system named is Primary Human endothelial cells (HUVEC). The experiment in a line: Endothelial cell migration assay. It counts as cell-based. Conditions: 10 micrograms per ml, 22 hours. As for the experimental part:
Thereafter, designated concentration of testing peptides-10 micrograms per ml-was added in duplicate wells.

Assay [9] concerns HUVEC. The experiment in a line: Endothelial tube formation assay. The format is cell-based, human. The note with it: 10 micrograms per ml, 20 hours. The text has this:
Positive control was vehicle only.

For assay [10], the system named is HCMV strain AD169. The assay can be described thus: HCMV plaque formation assay in MRC-5 cells. Conditions: for inhibition of HCMV plaque formation as compared to the virus control experiment: 10 micrograms per ml, 7-10 days.

Experimental findings from US20100210537A1, “USE OF A DEFENSIN PEPTIDE AS A THERAPEUTIC AGENT” (priority 2007, published 2010) are described below.

Where no end group is shown, it is not given here.

Consider `Cc1cn([C@H]2C[C@H](N=[N+]=[N-])[C@@H](CO)O2)c(=O)[nH]c1=O` [AZT], for which, in [1], the “antiviral activity of positive control compounds” value is “expected levels of antiviral activity”.

With `CC(C)(C)NC(=O)[C@@H]1CN(Cc2cccnc2)CCN1C[C@@H](O)C[C@@H](Cc1ccccc1)C(=O)N[C@H]1c2ccccc2C[C@H]1O` [indinavir], the “antiviral activity of positive control compounds” value in assay [1] was “expected levels of antiviral activity”.

For “Ser-Glu-Ile-Trp-Arg-Asp-Ile-Asp-Phe-OH (SEIWRDIDF-OH) [Peptide 2]”, the “inhibition of HBV replication as compared to the virus control infection” value in assay [2] is on record as 21.6%. Further, the “decrease of the production of IL-2 in murine spleen cells” value in [3] was “did not significantly change”. The “decrease of the production of IL-4 in murine spleen cells” value in assay [4] is listed as “did not significantly change”. In addition, the “decrease of the production of IL-5 in murine spleen cells” value in [5] is “did not significantly change”. Besides, in assay [6], the “change of the production of IFN-gamma in murine spleen cells” value is on record as “did not significantly change”. The “change of the production of TNF-alpha in murine spleen cells” value in assay [7] was “did not significantly change”. The “inhibition of the migration of human endothelial cells” value in [8] came to 18%. Further, the “inhibition of the tube formation of human endothelial cells” value in [9] is on record as 19%. The “inhibition of HCMV plaque formation as compared to the virus control experiment” value in assay [10] was “did not inhibit”.

With “Cys-Tyr-Cys-Arg-Ile-Pro-Ala-Cys-Ile-Ala-Gly-Glu-Arg-Arg-Tyr-Gly-Thr-Cys-Ile-Tyr-Gln-Gly-Arg-Leu-Trp-Ala-Phe-Cys-Cys-OH (CYCRIPACIAGERRYGTCIYQGRLWAFCC-OH; cysteine pairing not given here) [Peptide 1]”, the “inhibition of HBV replication as compared to the virus control infection” value in [2] is recorded as “did not inhibit”. In assay [3], the “decrease of the production of IL-2 in murine spleen cells” value was found to be 100%. The “decrease of the production of IL-4 in murine spleen cells” value in [4] is given as 49.4%. The “decrease of the production of IL-5 in murine spleen cells” value in assay [5] is recorded as 38.4%. Also, in assay [6], the “change of the production of IFN-gamma in murine spleen cells” value is “did not significantly change”. Besides, the “change of the production of TNF-alpha in murine spleen cells” value in [7] was “did not significantly change”. The “inhibition of the migration of human endothelial cells” value in assay [8] was 17%. Further, the “inhibition of the tube formation of human endothelial cells” value in assay [9] stood at 21%. In assay [10], the “inhibition of HCMV plaque formation as compared to the virus control experiment” value is given as “did not inhibit”.

For the compound `Nc1nc(O)c2ncn(COC(CO)CO)c2n1` [Ganciclovir, reference compound], the “antiviral activity of positive control compound” value in assay [10] (positive control, HCMV AD169) was “expected levels of antiviral activity”.
